Where two headings read alike, the source gives them in different places. Blank lines part the entries; values can stand above or below the compound they belong to.
Assays:
[1] = biological target: NR2B-subtype NMDA receptors (Rattus norvegicus (Rat), UniProt P35439+Q00960); experiment: Radioligand binding assay (3H Ro 25-6981 competition, rat forebrain membranes); conditions: 3H Ro 25-6981 (4 nM)
Protocol: Radioligand Binding Assay. Binding experiments to determine binding to NR2B-subtype NMDA receptors were performed on forebrains of 8-10 weeks old male Sprague Dawley rats (Harlan, Netherlands) using ^3H Ro 25-6981 (Mutel V; Buchy D; Klingelschmidt A; Messer J; Bleuel Z; Kemp J A; Richards J G. Journal of Neurochemistry, 1998, 70(5):2147-2155. Rats were decapitated without anesthesia using a Guillotine (approved by animal ethics committee) and the harvested brains were snap-frozen and stored at −80° C. for 3-6 months for membrane preparation.
For membrane preparation, rat forebrains were thawed on ice for 20 minutes in homogenization buffer composed of 50 mM KH2PO4 (pH adjusted to 7.4 with KOH), 1 mM EDTA, 0.005% Triton X 100 and protease inhibitor cocktail (Sigma Aldrich). Thawed brains were homogenized using a Dounce homogenizer and centrifuged at 48000×g for 20 min. The pellet was resuspended in cold buffer and homogenized again using a Dounce homogenizer. Subsequently, the homogenate was aliquoted, snap-frozen and stored at −80° C. for not more than 3-4 months.
To perform the competition binding assay, thawed membrane homogenate was added to each well of a 96-well plate (20 μg/well). The experimental compounds were serially diluted in 100% DMSO and added to each row of the assay plate to achieve desired compound concentrations, keeping the DMSO concentration in the assay plate at 1.33% of the final reaction volume. Next, ^3H Ro 25-6981 (4 nM) was added to the assay plate. After incubation for 1 hr at room temperature, the membrane bound radioligand was harvested on to GF/B filter plates (treated with 0.5% PEI for 1 hr at room temperature). The filter plates were dried at 50° C. for 20 mins, incubated with microscint 20 for 10 minutes and finally, the counts were read on TopCount (Perkin Elmer).

[2] = biological target: brain-resident NR2B-subtype receptors (Mus musculus (Mouse), UniProt P35438+Q01097); experiment: Ex vivo occupancy assay; type: in vivo; conditions: animals after dosing
Protocol: Ex Vivo Occupancy Assay. […] 7-9 weeks old male CD-1 mice were dosed intravenously in a vehicle consisting of 10% dimethylacetamide, 40% PEG-400, 30% hydroxypropyl betacyclodextrin, and 30% water with experimental compounds and the forebrains were harvested 15 minutes post-dosing by decapitation. The brain samples were immediately snap-frozen and stored at −80° C. On the following day, the dosed brain samples were thawed on ice for 15-20 minutes followed by homogenization using Polytron for 10 seconds in cold homogenization buffer composed of 50 mM KH2PO4 (pH adjusted to 7.4 with KOH), 1 mM EDTA, 0.005% Triton X 100 and protease inhibitor cocktail (Sigma Aldrich). The crude homogenates were further homogenized using a Dounce homogenizer and the homogenized membrane aliquots from all animals were flash-frozen and stored at −80° C. until further use. The whole homogenization process was performed on ice. For determining occupancy, the membrane homogenates were first thawed on ice and then needle-homogenized using a 25 gauge needle. The homogenized membrane (6.4 mg/ml) was added to a 96-well plate followed by addition of ^3H Ro 25-6981 (6 nM). The reaction mixture was incubated for 5 minutes on a shaker at 4° C. and then harvested onto GF/B filter plates (treated with 0.5% PEI for 1 hr at room temperature). The filter plates were dried at 50° C. for 20 mins, incubated with microscint 20 for 10 minutes and read on TopCount (Perkin Elmer). Each dose or compound group consisted of 4-5 animals. The control group of animals was dosed with vehicle alone. Membrane from each animal was added in triplicates to the assay plate. Non-specific binding was determined using 10 μM Ro 25-6981 added to the wells containing membrane homogenates from vehicle-dosed animals. Specific counts/minute was converted to % occupancy at each dose of a compound for each animal using the following equation: […]
Drug levels were determined by mass spectroscopy in the usual manner. Drug levels in the blood plasma were 572 nM in at this dose, and drug levels in the homogenized brain tissue were 863 nM.

Sequence of NR2B-subtype NMDA receptors (Q00960 27-1482, other chains not shown): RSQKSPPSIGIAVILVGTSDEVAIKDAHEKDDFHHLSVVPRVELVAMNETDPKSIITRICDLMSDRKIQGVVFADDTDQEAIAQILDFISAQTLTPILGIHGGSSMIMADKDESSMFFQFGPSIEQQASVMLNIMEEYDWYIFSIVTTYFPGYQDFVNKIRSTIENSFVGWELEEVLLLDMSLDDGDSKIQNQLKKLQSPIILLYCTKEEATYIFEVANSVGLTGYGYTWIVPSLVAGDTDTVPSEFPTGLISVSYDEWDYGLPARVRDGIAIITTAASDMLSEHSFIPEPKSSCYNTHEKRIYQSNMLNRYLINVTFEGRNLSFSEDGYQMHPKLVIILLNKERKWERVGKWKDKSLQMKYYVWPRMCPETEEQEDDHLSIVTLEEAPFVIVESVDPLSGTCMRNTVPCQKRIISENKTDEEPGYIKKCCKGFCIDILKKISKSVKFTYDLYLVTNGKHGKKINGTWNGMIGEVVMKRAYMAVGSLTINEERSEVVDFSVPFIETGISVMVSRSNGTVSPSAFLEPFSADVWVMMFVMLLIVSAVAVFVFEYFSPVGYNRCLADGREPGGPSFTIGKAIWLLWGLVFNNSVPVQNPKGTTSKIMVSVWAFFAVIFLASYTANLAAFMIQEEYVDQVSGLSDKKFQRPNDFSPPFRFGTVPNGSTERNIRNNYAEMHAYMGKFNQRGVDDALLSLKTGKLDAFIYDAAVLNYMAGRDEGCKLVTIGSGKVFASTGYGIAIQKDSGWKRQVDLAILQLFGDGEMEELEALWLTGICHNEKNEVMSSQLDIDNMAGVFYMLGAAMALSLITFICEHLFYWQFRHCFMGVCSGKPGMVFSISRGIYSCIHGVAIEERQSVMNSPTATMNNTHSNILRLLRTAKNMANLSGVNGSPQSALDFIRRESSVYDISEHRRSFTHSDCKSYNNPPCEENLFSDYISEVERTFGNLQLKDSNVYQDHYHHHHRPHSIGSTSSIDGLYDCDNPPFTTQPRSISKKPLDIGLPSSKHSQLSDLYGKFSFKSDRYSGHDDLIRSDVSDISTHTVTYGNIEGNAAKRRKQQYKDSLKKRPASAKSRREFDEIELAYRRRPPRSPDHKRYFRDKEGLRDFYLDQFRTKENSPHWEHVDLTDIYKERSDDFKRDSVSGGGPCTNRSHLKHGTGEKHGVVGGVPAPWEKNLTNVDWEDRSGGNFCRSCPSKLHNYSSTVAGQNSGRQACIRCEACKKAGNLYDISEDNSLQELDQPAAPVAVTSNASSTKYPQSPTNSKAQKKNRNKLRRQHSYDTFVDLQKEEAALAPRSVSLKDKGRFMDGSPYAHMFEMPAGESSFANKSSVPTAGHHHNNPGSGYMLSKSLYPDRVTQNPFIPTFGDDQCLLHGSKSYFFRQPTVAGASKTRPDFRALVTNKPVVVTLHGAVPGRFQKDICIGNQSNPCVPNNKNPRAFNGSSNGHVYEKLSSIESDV
Sequence of brain-resident NR2B-subtype receptors (Q01097 27-1482, other chains not shown): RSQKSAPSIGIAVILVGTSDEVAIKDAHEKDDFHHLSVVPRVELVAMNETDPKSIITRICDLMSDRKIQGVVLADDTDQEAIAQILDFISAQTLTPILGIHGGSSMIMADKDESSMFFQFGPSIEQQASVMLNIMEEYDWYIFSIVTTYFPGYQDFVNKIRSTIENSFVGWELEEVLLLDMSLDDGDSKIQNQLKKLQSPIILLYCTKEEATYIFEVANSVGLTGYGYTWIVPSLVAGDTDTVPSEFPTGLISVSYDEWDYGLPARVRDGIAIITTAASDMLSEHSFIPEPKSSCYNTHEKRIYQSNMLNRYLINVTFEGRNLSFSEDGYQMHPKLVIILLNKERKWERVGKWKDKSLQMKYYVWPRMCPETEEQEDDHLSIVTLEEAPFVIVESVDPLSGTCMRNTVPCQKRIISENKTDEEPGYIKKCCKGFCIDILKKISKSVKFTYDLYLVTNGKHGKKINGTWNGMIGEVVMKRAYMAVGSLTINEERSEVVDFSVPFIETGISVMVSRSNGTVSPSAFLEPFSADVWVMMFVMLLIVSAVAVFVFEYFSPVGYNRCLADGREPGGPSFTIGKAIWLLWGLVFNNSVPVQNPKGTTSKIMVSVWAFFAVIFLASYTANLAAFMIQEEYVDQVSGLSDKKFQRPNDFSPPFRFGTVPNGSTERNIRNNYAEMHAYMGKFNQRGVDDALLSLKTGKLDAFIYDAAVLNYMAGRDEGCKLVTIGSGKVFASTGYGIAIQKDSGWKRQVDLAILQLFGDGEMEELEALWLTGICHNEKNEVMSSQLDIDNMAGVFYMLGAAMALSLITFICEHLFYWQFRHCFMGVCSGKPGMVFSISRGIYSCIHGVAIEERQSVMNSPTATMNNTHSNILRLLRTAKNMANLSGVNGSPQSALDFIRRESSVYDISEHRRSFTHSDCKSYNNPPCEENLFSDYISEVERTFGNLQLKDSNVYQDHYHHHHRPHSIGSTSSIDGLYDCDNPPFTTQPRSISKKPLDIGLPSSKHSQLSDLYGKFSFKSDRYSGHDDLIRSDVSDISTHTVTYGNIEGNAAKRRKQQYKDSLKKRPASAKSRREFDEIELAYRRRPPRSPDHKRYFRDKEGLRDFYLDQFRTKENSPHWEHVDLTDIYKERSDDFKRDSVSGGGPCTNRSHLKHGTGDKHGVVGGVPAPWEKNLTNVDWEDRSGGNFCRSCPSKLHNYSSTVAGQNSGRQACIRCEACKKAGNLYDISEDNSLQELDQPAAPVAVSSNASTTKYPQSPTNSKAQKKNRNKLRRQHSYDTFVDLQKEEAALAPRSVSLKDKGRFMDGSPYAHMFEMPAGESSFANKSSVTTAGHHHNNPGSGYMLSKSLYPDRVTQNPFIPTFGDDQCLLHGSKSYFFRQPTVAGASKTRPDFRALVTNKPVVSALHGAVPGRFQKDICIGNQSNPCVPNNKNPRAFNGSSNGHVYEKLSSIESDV

Ki ([1]; listed as 11, P-2, read-out: NR2B Binding Ki): 39.3 nM
Structure (SMILES): Cc1ccc(CN2OCCC(N3CCC(c4ccc(O)c(F)c4)C(F)C3)C2=O)cc1 (single isomer, unassigned) [Example 11, P-2, 4-(3-fluoro-4-(3-fluoro-4-hydroxyphenyl)piperidin-1-yl)-2-(4-methylbenzyl)-1,2-oxazinan-3-one]

Ki ([1]; listed as 13, P-1, read-out: NR2B Binding Ki): 367 nM
Structure (SMILES): O=C1C(N2CCC(c3ccc(O)c(F)c3)C(F)C2)CCON1Cc1ccc(F)cc1 (single isomer, unassigned) [Example 13, P-1, 4-(3-fluoro-4-(3-fluoro-4-hydroxyphenyl)piperidin-1-yl)-2-(4-fluorobenzyl)-1,2-oxazinan-3-one]

Ki ([1]; listed as 13, P-2, read-out: NR2B Binding Ki): 4.03 nM
Structure (SMILES): O=C1C(N2CCC(c3ccc(O)c(F)c3)C(F)C2)CCON1Cc1ccc(F)cc1 (single isomer, unassigned) [Example 13, P-2, 4-(3-fluoro-4-(3-fluoro-4-hydroxyphenyl)piperidin-1-yl)-2-(4-fluorobenzyl)-1,2-oxazinan-3-one]

Ki ([1]; listed as 14, P-1, read-out: NR2B Binding Ki): 98.7 nM
Structure (SMILES): O=C1C(N2CCC(c3ccc(O)c(F)c3)C(F)C2)CCON1Cc1ccc(Cl)cc1 (single isomer, unassigned) [Example 14, P-1, 2-(4-chlorobenzyl)-4-(3-fluoro-4-(3-fluoro-4-hydroxyphenyl)piperidin-1-yl)-1,2-oxazinan-3-one]

Ki ([1]; listed as 14, P-2, read-out: NR2B Binding Ki): 2.8 nM
Structure (SMILES): O=C1C(N2CCC(c3ccc(O)c(F)c3)C(F)C2)CCON1Cc1ccc(Cl)cc1 (single isomer, unassigned) [Example 14, P-2, 2-(4-chlorobenzyl)-4-(3-fluoro-4-(3-fluoro-4-hydroxyphenyl)piperidin-1-yl)-1,2-oxazinan-3-one]

Further lines, the compound ahead of its results:

Structure (SMILES): Cc1ccc(CN2OCC(N3CCC(c4ccc(O)cc4)CC3)C2=O)cc1 (single isomer, unassigned) [Example 2, P-2, 4-(4-(4-hydroxyphenyl)piperidin-1-yl)-2-(4-methylbenzyl)isoxazolidin-3-one]
Ki ([1]; P-2, read-out: NR2B Binding Ki): 2.79 nM
occupancy of brain-resident NR2B-subtype receptors after dosing (in words) [2]: occupies brain-resident NR2B-subtype receptors

Structure (SMILES): O=C1C(N2CC[C@@H](c3ccc(O)cc3)[C@H](F)C2)CCON1Cc1ccc(Cl)cc1 (single isomer, unassigned) [Example 12, P-1]
Ki ([1]; listed as 12, P-1, read-out: NR2B Binding Ki): 3.9 nM

Structure (SMILES): O=C1C(N2CC[C@@H](c3ccc(O)cc3)[C@H](F)C2)CCON1Cc1ccc(Cl)cc1 (single isomer, unassigned) [Example 12, P-2]
Ki ([1]; listed as 12, P-2, read-out: NR2B Binding Ki): 150 nM

Structure (SMILES): O=C1C(N2CC[C@@H](c3ccc(O)cc3)[C@H](F)C2)CCON1Cc1ccc(F)cc1 (single isomer, unassigned) [Example 15, P-1]
Ki ([1]; listed as 15, P-1, read-out: NR2B Binding Ki): 393 nM

Structure (SMILES): O=C1C(N2CC[C@@H](c3ccc(O)cc3)[C@H](F)C2)CCON1Cc1ccc(F)cc1 (single isomer, unassigned) [Example 15, P-2]
Ki ([1]; listed as 15, P-2, read-out: NR2B Binding Ki): 12.5 nM

Source: US10501451B2, “Selective NR2B antagonists” (BRISTOL-MYERS SQUIBB COMPANY, priority 2015, dated 2019)
